Source: patent USRE47689E1, “Compounds for treating spinal muscular atrophy” (PTC Therapeutics, Inc., priority 2011, dated 2019)

Tested on: full length and Δ7 SMN2 mRNAs
Assay: Endogenous SMN2 mRNA RT-qPCR splicing assay in cultured cells
Type: cell-based, human
Conditions: GM03813 Type 1 SMA patient fibroblasts, increasing concentrations, 24 hrs
Protocol: The reverse transcription-quantitative PCR-based (RT-qPCR) assay is used to quantify the levels of the full length and Δ7 SMN2 mRNAs in primary cells and cell lines containing the SMN2 gene treated with a test compound.
Protocol. GM03813 SMA patient cells (5,000 cells/well) are seeded in 200 μL, of cell culture medium (DMEM plus 10% FBS) in 96-well flat-bottom plates and the plate is immediately swirled to ensure proper dispersal of cells, forming an even monolayer of cells. Cells are allowed to attach for at least 4-6 hrs. Test compounds are serially diluted 3.16-fold in 100% DMSO to generate a 7-point concentration curve. A solution of test compound (1 μL, 200× in DMSO) is added to each test well and 1 μL, DMSO is added to each control well. The plate is incubated for 24 hrs in a cell culture incubator (37° C., 5% CO2, 100% relative humidity). The cells are then lysed in Cells-To-Ct lysis buffer and the lysate is stored at −80° C.
SMN2-specific spliced products and GAPDH mRNA are identified using the following primers and probes in Table 5. Primer SMN FL Forward B (SEQ ID NO. 7) hybridizes to a nucleotide sequence in exon 7 (nucleotide 32 to nucleotide 54) and exon 8 (nucleotide 1 to nucleotide 4), primer SMN Δ7 Forward B (SEQ ID NO. 8) hybridizes to a nucleotide sequence in exon 6 (nucleotide 87 to nucleotide 111) and exon 8 (nucleotide 1 to nucleotide 3), primer SMN Reverse B (SEQ ID NO. 9) hybridizes to a nucleotide sequence in exon 8 (nucleotide 39 to nucleotide 62), probe SMN Probe B (SEQ ID NO. 10) hybridizes to a nucleotide sequence in exon 8 (nucleotide 7 to nucleotide 36). These primers and probe hybridize to nucleotide sequences common to human SMN1 and SMN2 mRNAs. Since the SMA patient cells used in Example 3 contain only the SMN2 gene, RT-qPCR can quantify only SMN2 full-length and Δ7 mRNA.
The SMN forward and reverse primers are used at final concentrations of 0.4 μM. The SMN probe is used at a final concentration of 0.15 μM. GAPDH primers are used at final concentrations of 0.1 μM and the probe at 0.075 μM. TaqMan gene expression assays were conducted at 20× concentrations with the GAPDH primers and Vic labeled probe provided as a 20× mixture. The One-Step RT-PCR kit was used as the Real-Time PCR Mix. […]
The increase of SMN2 FL and decrease in SMN2 Δ7 mRNAs relative to those in cells treated with vehicle control are determined from real-time PCR data using a modified ΔΔCt method (as described in Livak and Schmittgen, Methods, 2001, 25:402-8). The amplification efficiency E is calculated from the slope of the amplification curve for SMN2 FL, SMN2 Δ7, and GAPDH individually. The abundances of SMN2 FL, SMN2 Δ7, and GAPDH are then calculated as (1+E)^−Ct, where Ct is the threshold value for each amplicon. […]

Structure (SMILES)	SMN2 FL mRNA relative to vehicle	SMN2 Δ7 mRNA relative to vehicle
CCN1CCN(c2ccc3cc(-c4cn5cc(C)nc(C)c5n4)c(=O)oc3c2)C[C@@H]1C [Cpd 626, 3-(6,8-dimethylimidazo[1,2-a]pyrazin-2-yl)-7-[(3S)-4-ethyl-3-methylpiperazin-1-yl]-2H-chromen-2-one]	progressively more SMN2 FL mRNA	less SMN2 Δ7 mRNA
CC(C)NCCc1ccc2cc(-c3nc4c(Cl)cccc4s3)c(=O)oc2c1 [Cpd 35, 3-(4-chloro-1,3-benzothiazol-2-yl)-7-[2-(propan-2-ylamino)ethyl]-2H-chromen-2-one]	progressively more SMN2 FL mRNA	less SMN2 Δ7 mRNA
